Test results: publication PMC9147390, “Evaluation of TILI-2 as an Anti-Tyrosinase, Anti-Oxidative Agent and Its Role in Preventing Melanogenesis Using a Proteomics Approach” (Molecules, 2022)
No end group written: not given here.

Legend:
[1] = system: mouse melanoma (B16F1) cells; conditions: B16F1, 350 µM; cited from earlier work
NHDF cells = test: Cell viability assay (MTT), fibroblasts; type: cell-based, human; conditions: 24 h
Procedure: (§1) Fibroblast cells (NHDF) and B16F1 cells were purchased from the American Type Culture Collection (ATCC, Manassas, VA, USA) and cells were cultured in DMEM supplemented with 10% heat-inactivated FBS, 1% penicillin-streptomycin solution, and 5% L-glutamine. RAW 264.7 cells were purchased from the American Type Culture Collection (ATCC, Manassas, VA, USA) and cells were cultured in RPMI supplemented with 10% heat-inactivated FBS and 1% penicillin-streptomycin solution. These cells were cultured at 37 °C in a 5% CO2 and 90% relative humidity incubator. Cell viability assay was performed using slight modifications of the protocol described by Phosri et al.. Briefly, fibroblast cells (NHDF) (8000 cells/well) and RAW 264.7 cells (25,000 cells/well) were seeded onto a 96-well plate and allowed to recover overnight. Then, the cells were incubated with different concentrations of peptides (final concentration of 0–1400 µM, 100 µL). After 24 h incubation, the culture medium was removed, and MTT was added (0.5% w/v, 100 µL). After incubation for a further 30 min at 37 °C, DMSO was added and the absorbance at 570 nm was measured. The cell viability was calculated using the equation below: Cell viability %=A570 sample/A570 control×100 where A570 sample and A570 control are the absorbance of cells with and without the peptide treatment. The data were represented as mean ± SD (n = 3). […]

[2] = system: human keratinocyte (HaCaT); conditions: new results consistent with previous reports; cited from earlier work
RAW 264.7 cells = test: Cell viability assay (MTT), macrophages; type: cell-based; conditions: 24 h
Procedure: as §1

mouse B16 melanomas = conditions: cited from earlier work
Source text: Bioactive peptides are a promising group of depigmenting agents because they are derived from natural sources and therefore display low cytotoxicity.

[3] = DPPH radical scavenging assay; conditions: 0 to 200 µM, 30 min, room temperature, dark
Procedure: The DPPH radical scavenging assay was performed with slight modifications of the protocol reported by Jandaruang et al.. Briefly, a DPPH radical solution (0.1 mM, 100 µL) was mixed with TILI-2 (final concentration 0–200 µM, 10 µL) and incubated at room temperature in the dark for 30 min. Then, the reaction was monitored by measuring the absorbance of 515 nm using a SpectraMax M5 plate reader (Molecular Devices, Sunnyvale, CA, USA). DPPH radical inhibition (%) was calculated using the equation below: DPPH radical inhibition %=1−A515 sample/A515 control×100 where A515 sample and A515 control are the absorbance at 515 nm of the reaction with and without peptide.
(§2) The data were represented as mean ± SD (n = 3). An ANOVA test according to Duncan (p < 0.05) was used for each comparison (IBM SPSS Statistics 20).

[4] = ABTS radical scavenging assay; conditions: 0 to 50 µM, 6 min, room temperature
Procedure: The ABTS radical scavenging assay was performed with slight modifications of the protocol reported by Re et al.. Briefly, ABTS^+ was generated by the incubation of 7 mM ABTS with 2.45 mM potassium persulfate for 16 h at room temperature. Next, the ABTS radical solution was diluted until the absorbance at 734 nm was 0.7. The diluted ABTS radical solution (100 µL) was mixed with TILI-2 (final concentration 0–200 µM, 10 µL) and incubated at room temperature for 6 min. After that, the absorbance at 734 nm was measured using a SpectraMax M5 plate reader (Molecular Devices, Sunnyvale, CA, USA). The percentage of ABTS radical inhibition was calculated using the equation below: ABTS radical inhibition %=1−A734 sample/A734 control×100 where A734 sample and A734 control are the absorbance at 734 nm of the reaction with and without peptide.
as §2

mushroom tyrosinase [5] = molecular target: T1, mushroom tyrosinase (mushroom, UniProt C7FF04 1-392); test: enzyme inhibition kinetics (Lineweaver-Burk plot and secondary plot); monophenolase activity of mushroom tyrosinase, L-tyrosine 0.10-0.80 mM, TILI-2 0-300 µM, 50 mM phosphate buffer pH 6.8, 25 °C, absorbance at 475 nm; Ki from slope versus TILI-2 concentration; conditions: both partners purified
T1 construct: mushroom tyrosinase, EC 1.14.18.1, commercial preparation; The commercial preparation may hold several tyrosinase isoforms and other proteins; also called monophenol monooxygenase, EC 1.14.18.1; source: bought: Sigma Aldrich

mushroom tyrosinase [6] = molecular target: T1, mushroom tyrosinase; test: cell-based or functional assay

T1 sequence (C7FF04 1-392): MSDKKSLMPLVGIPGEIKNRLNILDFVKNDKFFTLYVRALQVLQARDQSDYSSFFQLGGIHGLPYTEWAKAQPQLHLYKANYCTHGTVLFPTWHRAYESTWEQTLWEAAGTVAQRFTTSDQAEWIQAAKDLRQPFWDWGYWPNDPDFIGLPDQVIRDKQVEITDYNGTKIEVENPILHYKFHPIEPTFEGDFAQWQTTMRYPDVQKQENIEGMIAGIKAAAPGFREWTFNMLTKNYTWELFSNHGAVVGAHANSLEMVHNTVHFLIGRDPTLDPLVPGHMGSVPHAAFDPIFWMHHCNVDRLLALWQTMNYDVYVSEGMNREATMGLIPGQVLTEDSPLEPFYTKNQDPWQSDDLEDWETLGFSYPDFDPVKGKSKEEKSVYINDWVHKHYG

CNGVQPK [TILI-2]
cytotoxicity (in words) [1]: non-toxic | Cell viability (NHDF cells; 1400 µM): 99.65 ± 1.31% | cytotoxicity (in words) (NHDF cells; NHDF, 0 to 1400 µM, MTT): not toxic | cytotoxicity (in words) [2]: not toxic | Cell viability (RAW 264.7 cells; 1400 µM): 105.41 ± 5.42% | cytotoxicity (in words) (RAW 264.7 cells; RAW 264.7, 0 to 1400 µM, MTT): not toxic

LQPSHY [CT-2, CT-2 (LQPSHY), a C-terminus tyrosine peptide derived from rice bran]
melanogenesis (in words) (mouse B16 melanomas): repressed melanogenesis

O=C1O[C@H]([C@@H](O)CO)C(O)=C1O [Ascorbic acid, L-Ascorbic acid]
DPPH radical scavenging (range over concentrations) ([3]; 515 nm): 13.79–82.63% | IC50 ([3]; absorbance 515 nm, mean ± SD, n = 3): 40.09 ± 0.21 µM | ABTS radical scavenging (range over concentrations) ([4]; 734 nm): 11.64–82.68% | IC50 ([4]; absorbance 734 nm, mean ± SD, n = 3): 15.9 ± 0.16 µM

B1: Tyrosinase Inhibitor Leucrocin I-2 (TILI-2) (peptide)
peptide: CNGVQPK
notes: N-terminal cysteine-containing heptapeptide, a peptide derivative from Leucrocin I; source: synthetic peptide (GL Biochem Ltd., Fmoc solid-phase synthesis, purity more than 95%)
Ki (mushroom tyrosinase [5]): 273 µM | IC50 of inhibition of tyrosinase monophenolase activity (L-tyrosine as substrate, A475) (mushroom tyrosinase [6]): 583 µM
